Test results from ChEMBL document CHEMBL1151081, “Synthesis of avermectin B1-4,4a-oxide: a precursor of potent anthelmintic agents” (Bioorg Med Chem Lett, 1992).
Converted amounts (≈) assume the structure as drawn.

Key:
Gerbillinae [1] = assay: In vivo Effective dose against Trichostrongylus colubriformis in T. colubriformis assay using Gerbils; format: functional
Caenorhabditis elegans = assay: Inhibition of Caenorhabditis elegans binding evaluated using Caenorhabditis elegans motility assay; format: functional, organism-based
Artemia salina = assay: Inhibition of Artemia salina evaluated using Arternia salina Immobilization assay; format: functional
Gerbillinae [2] = assay: In vivo Effective dose against Trichostrongylus colubriformis in Trichostrongylus colubriformis assay using gerbils; format: functional
[3] = Caenorhabditis elegans, read-out: IC50

Compound	ED85 (Gerbillinae [1])	IC50 (Caenorhabditis elegans; [3])	IC100 (Artemia salina)	ED85 (Gerbillinae [2])	IC50 (Caenorhabditis elegans)
CCC(C)[C@H]1O[C@]2(C=C[C@@H]1C)C[C@@H]1C[C@@H](C/C=C(\C)[C@@H](O[C@H]3C[C@H](OC)[C@@H](O[C@H]4C[C@H](OC)C(O)(CSCC(=O)OC)C[C@H](C)O4)[C@H](C)O3)[C@@H](C)/C=C/C=C3\CO[C@@H]4[C@H](O)C(C)=C[C@@H](C(=O)O1)[C@]34O)O2 (some centres not stated)	0.063 mg/kg	0.88 ng/mL (≈ 0.875 nM)	1300 ng/mL	–	–
CCC(C)[C@H]1O[C@]2(C=C[C@@H]1C)C[C@@H]1C[C@@H](C/C=C(\C)[C@@H](O[C@H]3C[C@H](OC)[C@@H](O[C@H]4C[C@H](OC)[C@@](O)(CSC5CCCCC5)[C@H](C)O4)[C@H](C)O3)[C@@H](C)/C=C/C=C3\CO[C@@H]4[C@H](O)C(C)=C[C@@H](C(=O)O1)[C@]34O)O2 (some centres not stated)	–	1.28 ng/mL (≈ 1.28 nM)	6930 ng/mL	0.25 mg/kg	–
CCCNCC1(O)C[C@H](C)O[C@@H](O[C@H]2[C@H](C)O[C@@H](O[C@@H]3/C(C)=C/C[C@@H]4C[C@@H](C[C@]5(C=C[C@H](C)[C@@H](C(C)CC)O5)O4)OC(=O)[C@@H]4C=C(C)[C@@H](O)[C@H]5OC/C(=C\C=C\[C@@H]3C)[C@]54O)C[C@@H]2OC)C[C@@H]1OC (some centres not stated)	0.125 mg/kg	1.39 ng/mL (≈ 1.45 nM)	27800 ng/mL	–	–
CCC(C)[C@H]1O[C@]2(C=C[C@@H]1C)C[C@@H]1C[C@@H](C/C=C(\C)[C@@H](O[C@H]3C[C@H](OC)[C@@H](O[C@H]4C[C@H](OC)[C@@](O)(CNCC5CCCCC5)[C@H](C)O4)[C@H](C)O3)[C@@H](C)/C=C/C=C3\CO[C@@H]4[C@H](O)C(C)=C[C@@H](C(=O)O1)[C@]34O)O2 (some centres not stated)	–	0.13 ng/mL (≈ 0.13 nM)	55500 ng/mL	0.25 mg/kg	–
IVERMECTIN [listing 1 of 2 here]	–	–	430 ng/mL	0.063 mg/kg	–
CCOC(CNC[C@@]1(O)[C@H](C)O[C@@H](O[C@H]2[C@H](C)O[C@@H](O[C@@H]3/C(C)=C/C[C@@H]4C[C@@H](C[C@]5(C=C[C@H](C)[C@@H](C(C)CC)O5)O4)OC(=O)[C@@H]4C=C(C)[C@@H](O)[C@H]5OC/C(=C\C=C\[C@@H]3C)[C@]54O)C[C@@H]2OC)C[C@@H]1OC)OCC (some centres not stated)	–	0.15 ng/mL (≈ 0.147 nM)	13900 ng/mL	0.125 mg/kg	–
CCC(C)[C@H]1O[C@]2(C=C[C@@H]1C)C[C@@H]1C[C@@H](C/C=C(\C)[C@@H](O[C@H]3C[C@H](OC)[C@@H](O[C@H]4C[C@H](OC)[C@@](O)(CNCc5ccco5)[C@H](C)O4)[C@H](C)O3)[C@@H](C)/C=C/C=C3\CO[C@@H]4[C@H](O)C(C)=C[C@@H](C(=O)O1)[C@]34O)O2 (some centres not stated)	–	0.1 ng/mL (≈ 0.102 nM)	10415 ng/mL	0.063 mg/kg	–
CCC(C)[C@H]1O[C@]2(C=C[C@@H]1C)C[C@@H]1C[C@@H](C/C=C(\C)[C@@H](O[C@H]3C[C@H](OC)[C@@H](O[C@H]4C[C@H](OC)[C@@](O)(CSc5ncc[nH]5)[C@H](C)O4)[C@H](C)O3)[C@@H](C)/C=C/C=C3\CO[C@@H]4[C@H](O)C(C)=C[C@@H](C(=O)O1)[C@]34O)O2 (some centres not stated)	–	0.13 ng/mL (≈ 0.132 nM)	430 ng/mL	0.031 mg/kg	–
CCC(C)[C@H]1O[C@]2(C=C[C@@H]1C)C[C@@H]1C[C@@H](C/C=C(\C)[C@@H](O[C@H]3C[C@H](OC)[C@@H](O[C@H]4C[C@H](OC)[C@@](O)(CSCC(=O)OC)[C@H](C)O4)[C@H](C)O3)[C@@H](C)/C=C/C=C3\CO[C@@H]4[C@H](O)C(C)=C[C@@H](C(=O)O1)[C@]34O)O2 (some centres not stated)	–	1.28 ng/mL (≈ 1.29 nM)	870 ng/mL	0.25 mg/kg	–
CCC(C)[C@H]1O[C@]2(C=C[C@@H]1C)C[C@@H]1C[C@@H](C/C=C(\C)[C@@H](O[C@H]3C[C@H](OC)[C@@H](O[C@H]4C[C@H](OC)[C@@](O)(CSc5ccncc5)[C@H](C)O4)[C@H](C)O3)[C@@H](C)/C=C/C=C3\CO[C@@H]4[C@H](O)C(C)=C[C@@H](C(=O)O1)[C@]34O)O2 (some centres not stated)	–	0.11 ng/mL (≈ 0.11 nM)	6930 ng/mL	0.125 mg/kg	–
CCC(C)[C@H]1O[C@]2(C=C[C@@H]1C)C[C@@H]1C[C@@H](C/C=C(\C)[C@@H](O[C@H]3C[C@H](OC)[C@@H](O[C@H]4C[C@H](OC)C(O)(CSC(C)=O)C[C@H](C)O4)[C@H](C)O3)[C@@H](C)/C=C/C=C3\CO[C@@H]4[C@H](O)C(C)=C[C@@H](C(=O)O1)[C@]34O)O2 (some centres not stated)	0.031 mg/kg	1.11 ng/mL (≈ 1.14 nM)	1300 ng/mL	–	–
IVERMECTIN [listing 2 of 2 here]	–	–	–	–	0.2 ng/mL
CCC(C)[C@H]1O[C@]2(C=C[C@@H]1C)C[C@@H]1C[C@@H](C/C=C(\C)[C@@H](O[C@H]3C[C@H](OC)[C@@H](O[C@H]4C[C@H](OC)C(O)(CC#N)C[C@H](C)O4)[C@H](C)O3)[C@@H](C)/C=C/C=C3\CO[C@@H]4[C@H](O)C(C)=C[C@@H](C(=O)O1)[C@]34O)O2 (some centres not stated)	0.031 mg/kg	0.7 ng/mL (≈ 0.756 nM)	870 ng/mL	–	–
CCC(C)[C@H]1O[C@]2(C=C[C@@H]1C)C[C@@H]1C[C@@H](C/C=C(\C)[C@@H](O[C@H]3C[C@H](OC)[C@@H](O[C@H]4C[C@H](OC)[C@@](O)(CSC(C)=O)[C@H](C)O4)[C@H](C)O3)[C@@H](C)/C=C/C=C3\CO[C@@H]4[C@H](O)C(C)=C[C@@H](C(=O)O1)[C@]34O)O2 (some centres not stated)	–	0.18 ng/mL (≈ 0.187 nM)	1730 ng/mL	0.125 mg/kg	–
CCCNC[C@@]1(O)[C@H](C)O[C@@H](O[C@H]2[C@H](C)O[C@@H](O[C@@H]3/C(C)=C/C[C@@H]4C[C@@H](C[C@]5(C=C[C@H](C)[C@@H](C(C)CC)O5)O4)OC(=O)[C@@H]4C=C(C)[C@@H](O)[C@H]5OC/C(=C\C=C\[C@@H]3C)[C@]54O)C[C@@H]2OC)C[C@@H]1OC (some centres not stated)	–	0.17 ng/mL (≈ 0.18 nM)	6930 ng/mL	0.125 mg/kg	–
